Data on four compounds can be found in patent publication US20070021456A1, “Aminobenzimidazole derivatives” (MERCK PATENT GMBH, priority 2003, published 2007).

Each structure is given as a SMILES string. pIC50: −log10 of the molar value.

The test deals with Tie-2 kinase (Homo sapiens, UniProt Q02763). Description: TIE-2 kinase flashplate assay (phosphorylation of poly(Glu, Tyr) with 33P-ATP). The class given is biochemical. To be noted: read-out: Inhibition of TIE-2 IC50. The procedure: The assay determines the inhibiting activity of the substances to be tested in the phosphorylation of the substrate poly(Glu, Tyr) by Tie-2 kinase in the presence of radioactive ^33P-ATP. The phosphorylated substrate binds to the surface of a “flashplate” microtitre plate during the incubation time. After removal of the reaction mixture, the microtitre plate is washed a number of times and the radioactivity on its surface is subsequently measured. An inhibiting effect of the substances to be measured results in lower radioactivity compared with an undisturbed enzymatic reaction.
Tie-2 kinase, sequence (Q02763 23-1124): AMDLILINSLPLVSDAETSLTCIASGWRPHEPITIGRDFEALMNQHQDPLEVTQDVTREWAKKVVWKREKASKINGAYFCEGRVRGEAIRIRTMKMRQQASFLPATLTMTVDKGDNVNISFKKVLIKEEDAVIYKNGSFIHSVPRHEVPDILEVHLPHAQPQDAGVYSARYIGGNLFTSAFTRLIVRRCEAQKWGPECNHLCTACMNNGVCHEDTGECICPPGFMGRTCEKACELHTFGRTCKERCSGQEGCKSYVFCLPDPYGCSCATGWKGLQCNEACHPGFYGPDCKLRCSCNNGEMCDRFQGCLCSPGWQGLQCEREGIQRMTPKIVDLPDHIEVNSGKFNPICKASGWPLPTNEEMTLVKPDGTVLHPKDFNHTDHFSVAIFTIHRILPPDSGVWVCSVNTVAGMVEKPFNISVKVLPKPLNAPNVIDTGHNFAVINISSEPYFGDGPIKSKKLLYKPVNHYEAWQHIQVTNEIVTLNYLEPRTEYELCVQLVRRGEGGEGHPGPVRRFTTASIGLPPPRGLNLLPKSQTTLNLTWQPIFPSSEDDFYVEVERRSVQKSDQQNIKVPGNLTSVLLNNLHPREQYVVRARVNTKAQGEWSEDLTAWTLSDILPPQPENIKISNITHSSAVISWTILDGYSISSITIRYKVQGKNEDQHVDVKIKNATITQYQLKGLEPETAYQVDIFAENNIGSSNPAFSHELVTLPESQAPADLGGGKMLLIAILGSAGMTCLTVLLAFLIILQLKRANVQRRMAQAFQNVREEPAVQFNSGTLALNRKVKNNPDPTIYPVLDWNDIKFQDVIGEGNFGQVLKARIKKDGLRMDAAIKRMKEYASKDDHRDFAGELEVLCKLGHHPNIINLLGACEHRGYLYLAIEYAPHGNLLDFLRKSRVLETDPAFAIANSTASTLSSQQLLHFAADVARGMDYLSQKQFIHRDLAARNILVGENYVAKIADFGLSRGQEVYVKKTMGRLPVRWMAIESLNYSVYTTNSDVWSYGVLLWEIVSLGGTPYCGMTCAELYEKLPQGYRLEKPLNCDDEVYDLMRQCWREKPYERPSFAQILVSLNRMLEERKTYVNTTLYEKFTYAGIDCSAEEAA
For `FC(F)(F)c1cc(Cl)c2nc(Nc3ccc(Oc4ccc5nsnc5c4)cc3)[nH]c2c1` [No. 2], the negative-log IC50 (pIC50) is 6.60.
The figure for `FC(F)(F)c1cc(Br)c2nc(Nc3ccc(Oc4ccc5nsnc5c4)cc3)[nH]c2c1` [A1, [4-(benzo-1,2,5-thiadiazol-5-yloxy)phenyl](4-bromo-6-trifluoromethyl-1H-benzimidazol-2-yl)amine] is 6.66; for `Cc1cc(Oc2ccc(Nc3nc4c(Br)cc(C(F)(F)F)cc4[nH]3)cc2)c(C)c2sc(N)nc12` [No. 31] it is 6.41; for `Nc1nc2ccc(Oc3ccc(Nc4nc5cc(C(F)(F)F)cc(Cl)c5[nH]4)cc3)cc2s1` [No. 38] it is 6.49.
